For test [1], the system named is Src phosphorylation in PC3-Etk cells. The test can be described thus: Western blot of Src phosphorylation in intact cells. It is filed as cell-based, human. The note with it: 5 μM and 10 μM, 24 h. The procedure:
Western blotting was performed as described previously. Proteins were detected using the following antibodies: β-actin (Sigma-Aldrich, Saint Louis, MO), Etk (Santa Cruz Inc., Santa Cruz, CA), pEtk; Src, pSrc; Stat3, pStat3. For phospho-Etk, cells were pre-treated with 100 μM pervanadate for 15 min before harvest.
Figure 4 Inhibition of cell signaling in PC3 cells following treatment with CTA095. Cells were grown in 10 mm plate to 50% confluence and treated with CTA095. Cells were harvested after 24 h. pEtk, Etk, pSrc, Src, pStat3, Stat3, pAkt and Akt levels were measured using the corresponding antibodies by Western blot. One of three similar experiments depicted.
(Immunoblotting shows a protein as a band on a membrane.)

In test [2] the test system is CWR22Rv1 cells. The test can be described thus: MTT growth inhibition assay. It is filed as cell-based. Conditions: Homo sapiens, 72 h. How it is done: (§1) Cells were seeded in 96-well plates and cultured overnight, followed by treatment with 0.1% DMSO, as the vehicle control, and CTA095, at the indicated concentrations for 72 h. Growth inhibition was measured using a 3-(4,5-Dimethylthiazol-2-yl)-2,5-diphenyltetrazolium bromide (MTT) assay (Roche Diagnostic, Mannheim, Germany).
(§2) Figure 5 Growth Inhibition of CTA095 to LNCAP, CWR22Rv1, PC3 prostate cancer and normal prostate (RWPE1) cells. Cells were seeded at 5,000 cells/well in 96-well plate overnight and treated with CTA095 at the indicated concentrations. The cell viability was measured using MTT assay after 72 h. dots, mean; bars, standard deviation, n = 3.
Background: Tetrazolium dyes change colour on reduction, which living cells bring about.

Test [3] concerns LNCAP cells. The test can be described thus: MTT growth inhibition assay. It is filed as cell-based. Conditions: Homo sapiens, 72 h. How it is done: as §1, §2
The subject of test [4] is RWPE1 cells. The test can be described thus: MTT growth inhibition assay. The test is classed as cell-based. Conditions: Homo sapiens, RWPE-1, RWPE1 normal prostate cells, 72 h. The procedure: as §1, §2
Test [5] deals with caspase 9 in PC3 cells. Kind of test: Caspase 9 activation (Western blot). The test is classed as cell-based, human. Conditions: PC3, 0–10 μM, 24 h. How it is done:
For caspase 3/7 activities, PC3 cells were seeded at 5,000 cells/well in 96-well plate overnight. Then the cells were treated with 0–10 μM CTA095 for 24 h. Caspase-3/7 activities were measured using the Apo-ONE Homogeneous Caspase-3/7 Assay kit (Promega, Madison, WI) according to the manufacturer's instruction. For caspase 9 activity, PC3 cells were seeded in 10 mm tissue culture plate and grew to 50% confluence. Cells were then treated with 0–10 μM CTA095 for 24 h. Cells were harvested and caspase 9 activity was measured using a Western blot with an anti-caspase 9 antibody.
Figure 7 Induction of apoptosis of PC3 cells following treatment with CTA095. PC3 cells were seeded at 10^6 cells/ml (2 ml) in a 6-well plate overnight and then treated with CTA095 at the indicated concentrations for 24 h. Cell cycle arrest was analyzed using PI staining (A). Apoptosis was analyzed using Annexin-V FITC apoptosis detection kit (B). Caspase 9 activation was measured using western blot (D). For caspase 3/7 activity, PC3 cells were seeded at 5000 cells/well in 96 well plate overnight and treated with CTA095 at 0–10 μM for 24 h. Caspase-3/7 activities were measured using the Apo-ONE Homogeneous Caspase-3/7 Assay kit (Promega, Madison, WI) according to the manufacturer's instruction. Columns, mean; bars, standard deviation, n = 3. […]

Test [6] deals with PC3 cells. Kind of test: PC3 cell wound healing assay. Conditions: 5 μM, after 48 h. It is filed as cell-based, human. The procedure: PC3 cells were grown in 6-well plate to 60% confluency. Then wounds were made using a tip and treated with CTA095 (0 and 5 μM). Cell migration (wound healing) was visualized under microscope at the indicated times.
Figure 8 Inhibition of tube formation and cell migration by CTA095. Inhibition of vascular tube formation of HUVEC endothelial cells (A) and inhibition of migration (wound healing) of PC3 human prostate cancer cells (B) by CTA095. (A) HUVEC cells were seed on mitrogel and treated with CTA095 (0 and 5 μM) for 6 h. Vascular tube formation was visualized using microscope. (B) PC3 cells were grown in 6-well plate to 60% confluency. Then wounds were made and treated with CTA095 (0 and 5 μM). Cell migration (wound healing) was visualized under microscope at the indicated times.

Test [7] relates to pEtk, pSrc, pSTAT3, Myc and BCL2 in PC3-AZD20 cells. Kind of test: Western blot of pEtk, pSrc, pStat3, Myc and BCL2. It is filed as cell-based, human. Conditions: PC3-AZD20, 10 μM. How it is done: PC3-AZD20 cells were seeded at 10^6 cells/well in 6 well plates overnight. The cells were treated with AZD0530 or CTA095 at 10 μM. Apoptosis was analyzed using Annexin-V FITC apoptosis detection kit. The mRNA levels of Myc and BCL2 were measured using real-time PCR. pEtk, Etk, pSrc, Src, pStat3, Stat3, Myc and BCL2 levels were measured using the corresponding antibodies through a Western blot.
Figure 12 CTA095 induces apoptosis in Src inhibitor resistant prostate cancer cells through Myc and BCL2 inhibition. PC3-AZD20 (PC3 cell resistant to 20 μM AZD0530) cells were seeded at 10^6 cells/well in 6 well plates overnight. The cells were treated with AZD0530 or CTA095 at 10 μM. Apoptosis was analyzed using Annexin-V FITC apoptosis detection kit (A). The mRNA levels of Myc and BCL2 were measured using real-time PCR (B). pEtk, Etk, pSrc, Src, pStat3, Stat3, Myc and BCL2 levels were measured using the corresponding antibodies through Western blot (C). Columns, mean; bars, standard deviation, n = 3.

In general, IC50 refers to the point on the concentration scale where inhibition reaches its midpoint. Higher therefore signals lower potency.

As for `O=c1[nH]c2cc3nc(-c4ccc5oc6ccccc6c5c4)n(CCCN4CCCCC4)c3cc2nc1-c1ccccc1` [CTA095, 2-(dibenzo[b,d]furan-2-yl)-7-phenyl-1-(3-(piperidin-1-yl)propyl)-1H-imidazo[4,5-g]quinoxalin-6(5H)-one], the Src phosphorylation result in test [1] was “significantly inhibited”. In addition, the IC50 came to 4.2 µM in test [2], 3.8 µM in test [3] and 7.9 µM in test [4]. Further, the “activation of caspase 9” value in test [5] is “dose dependent activation”. For the same compound, the “wound healing of PC3 cells” value in test [6] is reported as “greatly inhibited”. Also, the “pEtk, pSrc, pSTAT3, Myc and BCL2 protein levels” value in test [7] was “all down regulated”.
